From patent US10221271B2, “Polymer/copper combination for targeted cancer therapy” (University of South Carolina, priority 2014, dated 2019)

Key:
[1] = test system: intracellular GSH in NCI/ADR-Res, UMSCC 22A, and SKOV-3 cells; test: GSH-Glo Glutathione Assay, intracellular GSH level; type: cell-based; settings: BSO 1 mM, 8 h
Method: (§1) It has been reported that GSH levels in tumor tissues, such as ovarian, head and neck, breast, and lung cancer are higher than that in normal tissues. To probe whether the high GSH level is also prevail in cancer cells in vitro, GSH-Glo™ Glutathione Assay was employed. Briefly, tumor and normal cells were seeded in 96-well white plate (5,000 cells/well) overnight prior to the study. BSO (1 mM) or GSH-MME (5 mM) in culture medium was added. For control group, only fresh culture medium was added. Cells were incubated for 8 h, and the intracellular GSH concentration was measured by GSH-Glo™ Glutathione Assay according to the manufacturer's instruction.
(§2) Accordingly, glutathione-monomethylester (GSH-MME, 5 mM) and buthionine sulfoxamine (BSO, 1 mM) were employed to boost or deplete the intracellular GSH level in normal cells (NIH 3T3, BNL CL.2, KC, and MCF 10A) or cancer cells (NCI/ADR-Res, HCT 116, UMSCC 22A, SKOV-3, and MDA-MB-231), respectively.

[2] = test system: SKOV-3 cells; test: Cell cycle analysis by flow cytometry; type: cell-based; settings: 41.58 μM, 12 h, FIG. 14
Method: FIG. 14 presents cell cycle analysis of SKOV-3 cells after treated with 41.58 μM of PDA-PEG/Cu2+ for 12 h. Flow cytometry spectra (A) and quantitive analysis (B) of cell cycle. Data represent the means±SD, n=3. *p<0.01.
CDKN1C is an inhibitor for G1 cyclin/Cdk complexes and causes cell arrest in G1 phase. To investigate the effect of CDKN1C up-regulation after PDA-PEG/Cu^2+treatment, cell cycle analysis was employed.

[3] = test system: SKOV-3 cells; test: Cellular uptake of Cy5 labeled nanoparticles, flow cytometry and confocal microscopy; type: cell-based; settings: DTNB binds exofacial free thiol groups
Method: FIG. 9 presents […] spectra of SKOV-3 (left) and NIH 3T3 (right) cells. Cellular uptake assays were carried out 1 h after the addition of nanoparticles. Scale bars were 20 μm.
FIG. 10 presents the flow cytometry spectra of SKOV-3 (left) and NIH 3T3 (right) cells treated with Cy5 labeled PDA-PEG nanoparticles. Cellular uptake assays were carried out 1 h after the addition of nanoparticles.
PDA-PEG was modified by Cy5 for cellular uptake study. Briefly, cysteamine (0.11 mg, 5% PDA function group) in 500 μL DMSO was added dropwise into 20 mg PDA-PEG in 500 μL DSMO and the reaction mixture was kept at room temperature overnight. After overnight reaction, Cy5-NHS ester (0.39 mg in 390 μL DMSO) was added and the mixture was kept for reacting overnight, following a thoroughly dialysis towards DMSO to remove free Cy5. The concentration of Cy5 in the final product was measured by a microplate reader (SpectraMax® M5. Molecular Devices Inc) at λex640 and λem680.
To probe the mechanism for PDA-PEG/Cu^2+ selectively killing cancer cells, the cellular uptake of PDA-PEG and PDA-PEG/Cu^2+ nanoparticle was investigated with flow cytometry and confocal microscopy. […] Therefore, the uptake of PDA-PEG/Cu^2+ wasn't the reason for its cancer-cell-selectivity. 5,5′-Dithio-bis-(2-nitrobenzoic acid) (DTNB) is a compound binds the free thiol groups on the surface of cell membrane. […]

[4] = test system: intracellular GSH in normal cells (NIH 3T3, BNL CL.2, KC, and MCF 10A); settings: GSH-MME 5 mM, 8 h
Method: as §1, §2

`CCCCS(=N)(=O)CCC(N)C(=O)O` (stereo not shown) [BSO, Buthionine sulfoximine] was tested. Which “intracellular GSH level” value [1] did it give?
Its value is “declined GSH level”.

`[Cl][Cu][Cl]` [Cu^2+ ion, CuCl2] was tested. Which “effect on cell cycle distribution” value [2] did it give?
The value was “did not show any effect”.

For `O=C(O)c1cc(SSc2ccc([N+](=O)[O-])c(C(=O)O)c2)ccc1[N+](=O)[O-]` [DTNB, 5,5′-Dithio-bis-(2-nitrobenzoic acid)], which “effect on cellular uptake of PDA-PEG” value [3] is on record?
The value was “significantly inhibited”.

With `COC(=O)CNC(=O)[C@H](CS)NC(=O)CC[C@H](N)C(=O)O` [GSH-MME, Glutathione monomethylester] as the molecule, how does the “intracellular GSH level” value [4] read?
The value was “higher intracellular GSH level”.
